# Earlier results as cited in patent publication US20050186280A1, “Method for stabilizing a composition having a biologically active epidermal growth factor as an active ingredient” (Daewoong Pharm. Co., Ltd., priority 2000, published 2005).
# Settings: background statement; applied to wounds
substance,measurement,value
epidermal growth factor [EGF],half-life of EGF,about 1 hour
